Read-outs that look alike come from different tables or passages of the source.
Columns and labels:
CYP3A4 (CYP3A) = CYP3A4 (CYP3A) (Homo sapiens, UniProt P08684); assay: in vitro; conditions: microsomes, pH 7.4;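 also: inhibition of CYP3A-mediated 1-hydroxymidazolam formation after 10 min incubation with NADPH, quantified by HPLC MS relative to metabolite produced without test compound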
CYP2D6 = CYP2D6 (Homo sapiens, UniProt P10635); assay: CYP2D6 inhibition assay (bufuralol, pooled human liver microsomes)
[1] = Microsomal stability assay, human liver microsomes;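 also: pooled human liver microsomes at 0.25 mg/mL with 1 µM compound and NADPH at 37 °C, pH 7.4, for 30 min, unchanged parent quantified by LC-MS/MS against the 0 min sample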
[2] = target: Beta Secretase enzyme (BACE) (Homo sapiens, UniProt P56817); assay: In vitro enzymatic BACE FRET (fluorescence resonance energy transfer) assay; assay type: biochemical;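 also: fluorescence read after 1 h with 50 nM quenched peptide substrate spanning the BACE cleavage site, in pH 4.2 acetate buffer containing 10% DMSO and nonionic detergent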
[3] = Microsomal stability assay, rat liver microsomes;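 also: rat liver microsomes (0.25 mg/mL) with about 1 µM compound plus 1 mM NADPH, pH 7.4, 37 °C for 30 min, parent left measured by LC-MS/MS against 0 min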
[4] = test system: Aβ40 in conditioned medium of cells stably expressing Amyloid Precursor Protein (APP); assay: In vitro BACE cell-based assay (Aβ40 in conditioned medium, sandwich ELISA); conditions: Homo sapiens;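 also: compounds added as a dilution series, secreted peptide quantified by europium time-resolved fluorescence readout, potency fitted from percent of control versus compound concentration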
[5] = 2D6 IC50 (uM), CYP2D6 inhibition
[6] = BACE enzyme assay IC50, read-out: BACE1 FRET assay
[7] = HEK293, HEK cell-based assay IC50, read-out: HEK cell assay
[8] = read-out: BACE1 FRET assay (IC50)
[9] = HEK293, HEK cells, read-out: HEK cell assay (IC50)
[10] = 2D6 IC50 (uM), CYP enzyme inhibition
[11] = BACE enzyme assay, IC50's in uM, read-out: BACE1 FRET assay
[12] = HEK293, HEK cell-based assay, IC50's in uM, read-out: HEK cell assay
[13] = 2D6 IC50, CYP enzyme inhibition
[14] = Table 2, read-out: BACE1 FRET assay
[15] = HEK293, Table 2, HEK cells, read-out: HEK cell assay

Beta Secretase enzyme (BACE), sequence (P56817 46-501): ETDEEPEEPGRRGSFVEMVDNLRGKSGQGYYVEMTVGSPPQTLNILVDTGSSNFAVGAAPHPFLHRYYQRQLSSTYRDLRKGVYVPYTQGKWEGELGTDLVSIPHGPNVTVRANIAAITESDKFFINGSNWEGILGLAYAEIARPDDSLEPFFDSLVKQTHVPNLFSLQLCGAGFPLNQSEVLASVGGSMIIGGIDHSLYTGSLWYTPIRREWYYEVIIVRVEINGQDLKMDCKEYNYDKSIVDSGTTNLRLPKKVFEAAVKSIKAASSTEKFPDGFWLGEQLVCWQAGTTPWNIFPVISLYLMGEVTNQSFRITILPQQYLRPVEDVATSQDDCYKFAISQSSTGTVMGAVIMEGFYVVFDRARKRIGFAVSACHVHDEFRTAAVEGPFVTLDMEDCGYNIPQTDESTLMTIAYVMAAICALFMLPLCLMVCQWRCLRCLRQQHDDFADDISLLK
CYP3A4 (CYP3A), sequence (P08684 2-503): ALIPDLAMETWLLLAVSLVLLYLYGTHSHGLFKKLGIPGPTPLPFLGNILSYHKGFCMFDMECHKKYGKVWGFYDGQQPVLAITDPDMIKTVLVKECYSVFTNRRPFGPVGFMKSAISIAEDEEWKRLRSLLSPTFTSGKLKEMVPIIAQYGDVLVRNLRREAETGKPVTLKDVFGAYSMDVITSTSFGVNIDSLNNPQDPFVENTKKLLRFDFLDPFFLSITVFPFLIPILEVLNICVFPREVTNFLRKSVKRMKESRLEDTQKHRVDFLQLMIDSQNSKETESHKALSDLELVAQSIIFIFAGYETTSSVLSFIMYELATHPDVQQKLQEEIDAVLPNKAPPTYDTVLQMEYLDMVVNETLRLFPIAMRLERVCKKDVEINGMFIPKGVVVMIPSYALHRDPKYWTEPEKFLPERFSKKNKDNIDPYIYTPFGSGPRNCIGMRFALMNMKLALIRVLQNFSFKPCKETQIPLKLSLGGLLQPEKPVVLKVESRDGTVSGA
CYP2D6, sequence (P10635 whole entry): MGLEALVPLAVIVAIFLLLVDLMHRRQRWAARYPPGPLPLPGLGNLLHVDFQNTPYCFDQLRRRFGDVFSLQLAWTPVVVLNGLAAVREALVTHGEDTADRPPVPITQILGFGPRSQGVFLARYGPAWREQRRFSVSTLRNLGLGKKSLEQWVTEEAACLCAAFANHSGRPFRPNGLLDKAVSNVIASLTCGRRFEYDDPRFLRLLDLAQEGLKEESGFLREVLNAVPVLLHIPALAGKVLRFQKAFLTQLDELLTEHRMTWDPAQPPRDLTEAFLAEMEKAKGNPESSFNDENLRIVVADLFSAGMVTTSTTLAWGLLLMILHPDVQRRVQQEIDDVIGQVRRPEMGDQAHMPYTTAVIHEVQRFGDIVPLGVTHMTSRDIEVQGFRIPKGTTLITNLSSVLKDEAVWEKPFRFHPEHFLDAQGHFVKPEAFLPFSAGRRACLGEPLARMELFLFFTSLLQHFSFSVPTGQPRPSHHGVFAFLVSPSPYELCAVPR

SMILES | IC50 (CYP3A4 (CYP3A)) [nM] | HLM ([1]; human liver microsomes) [µL/min/mg] | RLM ([3]; rat liver microsomes) [µL/min/mg] | IC50 (CYP2D6; 2D6 IC50, CYP2D6 inhibition) [µM] | IC50 [2, 8] [µM] | IC50 [4, 9] [µM] | HLM ([1]; human liver microsomal data) [µL/min/mg] | RLM ([3]; rat liver microsomal data) [µL/min/mg] | other results
CC(=O)N[C@@H](Cc1ccc2c(c1)OCO2)[C@H](O)CN[C@H]1CC(C)(C)Oc2ncc(CC(C)(C)C)cc21 [compound 679] | 200 | 24 | 138 |  |  |  |  |  | IC50 (CYP2D6; [5]): 5.7 µM; IC50 [2, 6]: 0.019 µM; IC50 [4, 7]: 0.012 µM
COCC(=O)N[C@@H](Cc1cccc(F)c1)[C@H](O)CN[C@H]1CC2(CCC2)Oc2c(-c3ccncc3F)cc(CC(C)(C)C)cc21 [compound 668] | 100 | 118 | 197 | 2.9 | 0.004 | 0.018 |  |  | 
C[C@H](F)C(=O)N[C@@H](Cc1cccc(F)c1)[C@H](O)CN[C@H]1CC2(CCC2)Oc2ncc(CC(C)(F)F)cc21 [compound 608] | 4500 | 232 | 183 | 12.2 | 0.008 | 0.016 |  |  | 
COCC(=O)N[C@@H](Cc1cc(F)cc(F)c1)[C@H](O)CN[C@H]1CC2(CCC2)Oc2c1cc(CC(C)C)nc2Cl [compound 667] | 600 | 399 | 682 | 6.3 | 0.005 | 0.054 |  |  | 
CC(=O)N[C@@H](Cc1ccc(F)c(-c2ccncc2)c1)[C@H](O)CN[C@H]1CC2(CCC2)Oc2ncc(CC(C)(C)C)cc21 [compound 602] | 160 | 124 | 78 | 0.4 | 0.023 | 0.018 |  |  | 
CC(C)(C)Cc1cnc2c(c1)[C@@H](NC[C@@H](O)[C@H](Cc1ccc3c(c1)OCO3)NC(=O)CC1CCS(=O)(=O)C1)CC1(CCC1)O2 (stereo partly drawn) [compound 778] | 100 |  |  |  |  |  | 62 | 141 | IC50 (CYP2D6; [10]): 8.5 µM; IC50 [2, 11]: 0.048 µM; IC50 [4, 12]: 0.05 µM
CO[C@H](C)C(=O)N[C@@H](Cc1cc(F)cc(-c2nccs2)c1)[C@H](O)CN[C@H]1CC2(CCC2)Oc2ccc(CC(C)C)cc21 [compound 770] | 300 |  |  |  |  |  | 145 | 201 | IC50 (CYP2D6; [10]): 0.5 µM; IC50 [2, 11]: 0.01 µM; IC50 [4, 12]: 0.052 µM
CC(=O)N[C@@H](Cc1cc(F)cc(F)c1)[C@H](O)CN[C@H]1CC2(CCC2)Oc2c1cc(CC(C)(C)C)nc2-c1cncs1 [compound 481] | 200 |  |  |  |  |  | 155 | 177 | IC50 (CYP2D6; [13]): 7.9 µM; IC50 [2, 14]: 0.004 µM; IC50 [4, 15]: 0.123 µM
CNc1nc(CC(C)C)cc2c1OC1(CCC1)C[C@@H]2NC[C@@H](O)[C@H](Cc1ccc2c(c1)OCO2)NC(=O)COC [compound 681] | 800 | 197 | 392 |  |  |  |  |  | IC50 (CYP2D6; [5]): 9.2 µM; IC50 [2, 6]: 0.064 µM; IC50 [4, 7]: 0.014 µM
COCC(=O)N[C@@H](Cc1cccc(F)c1)[C@H](O)CN[C@H]1CC2(CCC2)Oc2c1cc([C@@H](O)C(C)(C)C)cc2-n1ccnc1 [compound 593] | 100 | 14 | 29 | 1 | 1.59 | 0.312 |  |  | 
CO[C@H](C)C(=O)N[C@@H](Cc1ccc2c(c1)OCO2)[C@H](O)CN[C@H]1CC2(CCC2)Oc2ccc(C[C@H](C)F)cc21 [compound 555] | 400 |  |  |  |  |  | 269 | 543 | IC50 (CYP2D6; [10]): 0.9 µM; IC50 ([2]; BACE enzyme assay, read-out: BACE1 FRET assay): 3.42 µM; IC50 ([4]; HEK293, HEK cells, read-out: HEK cell assay): > 10 µM
COCC(=O)N[C@@H](Cc1cc(F)cc(F)c1)[C@H](O)CN[C@H]1CC2(CCC2)Oc2c(Br)cc(CC(C)(C)C)cc21 [compound 464] | 1500 |  |  |  |  |  | 463 | 364 | IC50 (CYP2D6; [13]): 11.5 µM; IC50 [2, 14]: 0.004 µM; IC50 [4, 15]: 0.091 µM
